# Measured values reported in US8399662B2, “O-acyloxime derivatives, preparation method thereof, and pharmaceutical composition containing the same for prevention and treatment of cardiovascular disease” (Korea Research Institute of Bioscience and Biotechnology, priority 2004, dated 2013).
# Assays:
# Lp-PLA2 = molecular target: T1, Lp-PLA2 (Homo sapiens, UniProt Q13093); experiment: Measurement of Lp-PLA2 (PAF-AH) activity using [3H]PAF substrate and human LDL as enzyme source; assay type: biochemical; settings: Lp-PLA2 from human LDL, average of two test results, read-out: Inhibition rate at 25 μM
# T1 construct: LDL was isolated from the plasma by discontinuous density gradient ultra centrifugation; from tissue; host or cells: LDL fraction of human blood plasma from normal lipidemic volunteers
# T1 sequence (Q13093 22-441): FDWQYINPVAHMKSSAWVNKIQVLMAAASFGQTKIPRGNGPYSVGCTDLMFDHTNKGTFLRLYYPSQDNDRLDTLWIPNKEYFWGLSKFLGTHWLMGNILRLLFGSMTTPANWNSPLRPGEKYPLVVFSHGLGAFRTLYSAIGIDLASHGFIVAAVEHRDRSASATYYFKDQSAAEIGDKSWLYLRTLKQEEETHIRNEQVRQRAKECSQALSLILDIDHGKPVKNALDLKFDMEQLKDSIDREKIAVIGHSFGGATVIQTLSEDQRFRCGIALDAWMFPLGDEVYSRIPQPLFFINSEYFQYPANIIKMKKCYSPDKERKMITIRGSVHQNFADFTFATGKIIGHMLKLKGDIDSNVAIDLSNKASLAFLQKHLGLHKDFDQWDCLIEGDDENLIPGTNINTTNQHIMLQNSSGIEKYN
# Protocol: Blood was collected from normal lipidemic volunteers. EDTA was used as anticoagulant (1.5 mg/ml of blood). […] LDL was isolated from the plasma by discontinuous density gradient ultra centrifugation. Briefly, the plasma was centrifuged at 100,000×g at 4° C. for 20 hours. […] The LDL fraction in the top of the tube was collected and dialyzed overnight against three changes of phosphate buffer (pH 7.4), containing NaCl (150 mM), in the dark at 4° C. to remove NaBr and EDTA. The LDL in PBS was stored at 4° C. and used within 4 weeks. The purity of the fraction was confirmed by agarose gel electrophoresis and SDS-PAGE. Concentration of LDL protein was determined using bovine serum albumin (BSA) as a standard.
# Lp-PLA2, the enzyme is also known as platelet-activating factor acetylhydrolase (PAF-AH), activity was measured using [^3H]PAF as a substrate. […] The reaction mixture, containing 20 μL of diluted human LDL (Lp-PLA2 source, 4-5 μg protein), 120 μL of PBS-EDTA, and 20 μL of test sample, was preincubated at 37° C. for 15 min. The reaction was initiated by the addition of 40 μL micelle substrate (0.1 μCi, final conc. 80 μM PAF) to measure initial rates of PAF-AH activity. […] The raw counts were corrected for background using a nonenzyme-containing blank and were expressed as nanomoles of PAF degraded per hour per milligram of protein.
# in vivo = settings: both, ICR, mouse, in vivo, po
# Protocol: (§1) Specific pathogens free ICR mice of 4 weeks old (12 females and 12 males; 3 females and 3 males/dosage group) were raised in an animal chamber controlled with the temperature of 22±3° C., humidity of 55±10%, and illumination of 12L/12D cycle. The mice were acclimated for a week before the test. Feed for a test animal (CJ Corp., for mouse and rat) and water were supplied after sterilization and taken by the mice without any restriction.
# (§2) The amount of 0.04 ml (100 mg/kg), 0.2 ml (500 mg/kg), and 0.4 ml (1,000 mg/kg) per mouse weight of 20 g was dosed individually to the mice by oral administration. The samples were dosed only one time, and adverse effect and mortality were observed during 7 days after the dosing as follows.
# (§3) Additionally, on seventh day after the administration, the animals were sacrificed and dissected to examine internal organs with naked eye. Weight loss due to (E)-3,4-di-fluorobenzaldehyde O-benzoyloxime or (E)-2,3-di-fluorobenzaldehyde O-morpholine-4-carbonyloxime was observed by measuring weight changes at the intervals of 1 day since the dosage.
# ICR mice = experiment: in vivo; settings: single oral dose up to 1,000 mg/kg, ICR mice, 7 days
# Protocol: as §1, §2, §3
inhibition at 25 µM (Lp-PLA2) [%],Compound,LD50 at 7 days (in vivo) [mg/kg],"toxicity (clinical symptoms, weight change, blood test, biochemical test of blood, necropsy) (ICR mice)"
29,"O=C(O/N=C(\OC(=O)c1ccccc1)c1ccccc1)c1ccccc1 [Example 16, (E)-1-benzoic acid-benzaldehyde O-benzoyloxime]",,
,"O=C(O/N=C/c1ccc(F)c(F)c1)c1ccccc1 [Example 21, (E)-3,4-di-fluorobenzaldehyde O-benzoyloxime]",> 1000,
,"O=C(O/N=C/c1cccc(F)c1F)N1CCOCC1 [Example 30, (E)-2,3-di-fluorobenzaldehyde O-morpholine-4-carbonyloxime]",> 1000,did not show any toxicity
